Legend:
[1] = system: patients with localized musculoskeletal pain; assay: Example III: case reports of 3 patients applying topical baclofen; type: in vivo, human
[2] = system: patients with localized musculoskeletal pain; assay: Example 1: topical Baclofen cream in 19 patients, pain intensity on Visual Analogue Scale; type: in vivo, human; conditions: patient, facioscapulohumeral muscular dystrophy, before applying topical baclofen
Protocol: The cream was prepared with Baclofen powder mixed with a Pentravan® Base (Fagron) at a final concentration of 10% w/w.
The intensity of pain was rated using a Visual Analogue Scale (VAS) from 1 to 10.

[3] = patient, Facioscapulohumeral muscular dystrophy, before topical baclofen

| Compound | efficiency of earlier pain treatment [1, 3] | efficiency of earlier pain treatment [2] | efficiency of earlier pain treatment ([1]; human, in vivo) |
| --- | --- | --- | --- |
| C=CC1CN2CCC1CC2C(O)c1ccnc2ccc(OC)cc12.O=C(O)c1ccccc1 (stereo not drawn) [Quinine benzoate] | poor efficiency | – | – |
| NCC1(CC(=O)O)CCCCC1 [gabapentine] | – | poor efficiency | – |
| COc1c(O[C@@H]2O[C@H](CO)[C@@H](O)[C@H](O)[C@H]2O)cc2c(c1OC)-c1ccc(SC)c(=O)cc1[C@@H](NC(C)=O)CC2 [Thiocolchicoside] | – | – | poor efficiency |
| NCC(CC(=O)O)c1ccc(Cl)cc1 (stereo not drawn) [baclofen per os, β-(4-chlorophenyl)-γ-aminobutyric acid] | – | – | poor efficiency |
| COc1cccc(C2(O)CCCCC2CN(C)C)c1 (stereo not drawn) [tramadol] | – | poor efficiency | – |
| CC(C(=O)O)c1cccc(C(=O)c2ccccc2)c1 (stereo not drawn) [ketoprofene] | – | poor efficiency | – |
| CC(=O)Nc1ccc(O)cc1 [paracetamol] | – | poor efficiency | – |
| CN(C)CCC=C1c2ccccc2CCc2ccccc21 [amitriptyline] | poor efficiency | poor efficiency | – |
